Results reported in patent US9714247B2, “Multiple kinase pathway inhibitors” (Mannkind Corporation, priority 2012, dated 2017).
pEC50, pIC50: −log10 of the molar value. Where two headings read alike, the source gives them in different places.

Key:
DoHH2 = assay: CellTiter-Glo proliferation/viability assay; format: cell-based, human; settings: Homo sapiens
c-Kit(h) = c-Kit(h) (Homo sapiens (Human), UniProt P10721); assay: IC50 profiler radiometric kinase assay (Millipore); format: biochemical; settings: TK
Procedure: (§1) In order to determine the relative enzyme selectivity of these amino naphthyridinones, representative amino naphthyridinones were evaluated for their ability to inhibit various kinases. Kinases were selected for a broad representation of the kinome (see FIG. 2: Kinases Evaluated). Compounds were evaluated using the IC50 profiler assay (Millipore), which measures substrate phosphorylation via γ-^33P-ATP transfer by the kinase of interest.
(§2) The assay directly measures the catalytic incorporation of phosphate onto kinase substrates. The kinase protein is incubated in buffer with substrate and γ-^33P-ATP. The reaction is initiated by the addition of the Mg-ATP mix. At the end of the reaction incubation time, the reaction is stopped by the addition of phosphoric acid solution and 10 μL of the reaction is spotted onto a filtermat, washed, dried and counted in scintillation fluid. […] In particular the amino naphthyridinones inhibited Abl and some but not all tested members of the Tec and Src families of tyrosine kinases, but not tyrosine-like kinases or the non-tyrosine kinases tested (See FIG. 2: Compound 1). […] Other known drugs with activity against BTK and SFKs, such as dasatinib and bosutinib, have activity against a broader array of tyrosine kinases as well as inhibiting non-tyrosine kinases (See FIG. 2: Dasatinib).

JNK2α2(h) = JNK2α2(h) (Homo sapiens (Human), UniProt P45984); assay: IC50 profiler radiometric kinase assay (Millipore); format: biochemical; settings: CMGC
Procedure: as §1, §2

Bmx(h) = Bmx(h) (Homo sapiens (Human), UniProt P51813); assay: IC50 profiler radiometric kinase assay (Millipore); format: biochemical; settings: TK
Procedure: as §1, §2

Syk(h) = Syk(h) (Homo sapiens (Human), UniProt P43405); assay: IC50 profiler radiometric kinase assay (Millipore); format: biochemical; settings: TK
Procedure: as §1, §2

PAK2(h) = PAK2(h) (Homo sapiens (Human), UniProt Q13177); assay: IC50 profiler radiometric kinase assay (Millipore); format: biochemical; settings: STE
Procedure: as §1, §2

PKCα(h) = PKCα(h) (Homo sapiens (Human), UniProt P17252); assay: IC50 profiler radiometric kinase assay (Millipore); format: biochemical; settings: AGC
Procedure: as §1, §2

Abl(T315I)(h) = Abl(T315I)(h) (Homo sapiens (Human), UniProt P00519, T315I); assay: IC50 profiler radiometric kinase assay (Millipore); format: biochemical; settings: TK
Procedure: as §1, §2

SAPK2b(h) = SAPK2b(h) (Homo sapiens (Human), UniProt Q15759); assay: IC50 profiler radiometric kinase assay (Millipore); format: biochemical; settings: CMGC
Procedure: as §1, §2

CSK(h) = CSK(h) (Homo sapiens (Human), UniProt P41240); assay: IC50 profiler radiometric kinase assay (Millipore); format: biochemical; settings: TK
Procedure: as §1, §2

Flt3(h) = Flt3(h) (Homo sapiens (Human), UniProt P36888); assay: IC50 profiler radiometric kinase assay (Millipore); format: biochemical; settings: TK
Procedure: as §1, §2

IKKα(h) = IKKα(h) (Homo sapiens (Human), UniProt O15111); assay: IC50 profiler radiometric kinase assay (Millipore); format: biochemical; settings: MISC
Procedure: as §1, §2

Abl(h) = Abl(h) (Homo sapiens (Human), UniProt P00519); assay: IC50 profiler radiometric kinase assay (Millipore); format: biochemical; settings: TK
Procedure: as §1, §2

FGFR1(h) = FGFR1(h) (Homo sapiens (Human), UniProt P11362); assay: IC50 profiler radiometric kinase assay (Millipore); format: biochemical; settings: TK
Procedure: as §1, §2

IGF-1R(h) = IGF-1R(h) (Homo sapiens (Human), UniProt P08069); assay: IC50 profiler radiometric kinase assay (Millipore); format: biochemical; settings: TK
Procedure: as §1, §2

Aurora-A(h) = Aurora-A(h) (Homo sapiens (Human), UniProt O14965); assay: IC50 profiler radiometric kinase assay (Millipore); format: biochemical; settings: MISC
Procedure: as §1, §2

KDR(h) = KDR(h) (Homo sapiens (Human), UniProt P35968); assay: IC50 profiler radiometric kinase assay (Millipore); format: biochemical; settings: TK
Procedure: as §1, §2

BTK(R28H)(h) = BTK(R28H)(h) (Homo sapiens (Human), UniProt Q06187, R28H); assay: IC50 profiler radiometric kinase assay (Millipore); format: biochemical; settings: TK
Procedure: as §1, §2

CK1δ(h) = CK1δ(h) (Homo sapiens (Human), UniProt P48730); assay: IC50 profiler radiometric kinase assay (Millipore); format: biochemical; settings: CK1
Procedure: as §1, §2

Lck(h) = Lck(h) (Homo sapiens (Human), UniProt P06239); assay: IC50 profiler radiometric kinase assay (Millipore); format: biochemical; settings: TK
Procedure: as §1, §2

MKK6(h) = MKK6(h) (Homo sapiens (Human), UniProt P52564); assay: IC50 profiler radiometric kinase assay (Millipore); format: biochemical; settings: STE
Procedure: as §1, §2

Plk1(h) = Plk1(h) (Homo sapiens (Human), UniProt P53350); assay: IC50 profiler radiometric kinase assay (Millipore); format: biochemical; settings: MISC
Procedure: as §1, §2

Hck(h) activated = Hck(h) activated (Homo sapiens (Human), UniProt P08631); assay: IC50 profiler radiometric kinase assay (Millipore); format: biochemical; settings: TK; activated = phosphorylated
Procedure: as §1, §2

Pim-1(h) = Pim-1(h) (Homo sapiens (Human), UniProt P11309); assay: IC50 profiler radiometric kinase assay (Millipore); format: biochemical; settings: CAMK
Procedure: as §1, §2

JNK1α1(h) = JNK1α1(h) (Homo sapiens (Human), UniProt P45983); assay: IC50 profiler radiometric kinase assay (Millipore); format: biochemical; settings: CMGC
Procedure: as §1, §2

MAPK1(h) = MAPK1(h) (Homo sapiens (Human), UniProt P27361); assay: IC50 profiler radiometric kinase assay (Millipore); format: biochemical; settings: CMGC
Procedure: as §1, §2

EGFR(h) = EGFR(h) (Homo sapiens (Human), UniProt P00533); assay: IC50 profiler radiometric kinase assay (Millipore); format: biochemical; settings: TK
Procedure: as §1, §2

CHK1(h) = CHK1(h) (Homo sapiens (Human), UniProt O14757); assay: IC50 profiler radiometric kinase assay (Millipore); format: biochemical; settings: CAMK
Procedure: as §1, §2

PDGFRβ(h) = PDGFRβ(h) (Homo sapiens (Human), UniProt P09619); assay: IC50 profiler radiometric kinase assay (Millipore); format: biochemical; settings: TK
Procedure: as §1, §2

[1] = target: PI3 Kinase (p110β/p85α)(h) (Homo sapiens (Human), UniProt P42338); assay: IC50 profiler radiometric kinase assay (Millipore); format: biochemical; settings: Lipid/Atypical
CDK2/cyclinA(h) = CDK2/cyclinA(h) (Homo sapiens (Human), UniProt P24941); assay: IC50 profiler radiometric kinase assay (Millipore); format: biochemical; settings: CMGC
Lyn = Lyn (Homo sapiens (Human), UniProt P07948); assay: biochemical
CaMKI(h) = CaMKI(h) (Homo sapiens (Human), UniProt Q14012); assay: IC50 profiler radiometric kinase assay (Millipore); format: biochemical; settings: CAMK
p70S6K(h) = p70S6K(h) (Homo sapiens, UniProt P23443); assay: IC50 profiler radiometric kinase assay (Millipore); format: biochemical; settings: AGC
[2] = DOHH-2, 48 hrs, read-out: DoHH2 EC50

p70S6K(h), sequence (P23443 whole entry, looked up): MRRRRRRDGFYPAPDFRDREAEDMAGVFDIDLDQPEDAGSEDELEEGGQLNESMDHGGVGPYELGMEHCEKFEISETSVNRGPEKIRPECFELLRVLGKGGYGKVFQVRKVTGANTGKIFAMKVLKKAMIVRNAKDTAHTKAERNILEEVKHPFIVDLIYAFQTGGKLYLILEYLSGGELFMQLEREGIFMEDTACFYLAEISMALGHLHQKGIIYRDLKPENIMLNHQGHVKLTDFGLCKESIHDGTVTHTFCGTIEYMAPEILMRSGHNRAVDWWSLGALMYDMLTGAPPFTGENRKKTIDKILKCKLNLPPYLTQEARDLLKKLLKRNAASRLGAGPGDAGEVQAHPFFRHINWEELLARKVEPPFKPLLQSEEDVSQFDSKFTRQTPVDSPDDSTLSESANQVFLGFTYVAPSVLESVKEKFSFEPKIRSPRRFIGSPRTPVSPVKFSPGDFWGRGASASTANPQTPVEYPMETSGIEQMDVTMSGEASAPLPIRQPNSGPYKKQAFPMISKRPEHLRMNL
PAK2(h), sequence (Q13177 whole entry): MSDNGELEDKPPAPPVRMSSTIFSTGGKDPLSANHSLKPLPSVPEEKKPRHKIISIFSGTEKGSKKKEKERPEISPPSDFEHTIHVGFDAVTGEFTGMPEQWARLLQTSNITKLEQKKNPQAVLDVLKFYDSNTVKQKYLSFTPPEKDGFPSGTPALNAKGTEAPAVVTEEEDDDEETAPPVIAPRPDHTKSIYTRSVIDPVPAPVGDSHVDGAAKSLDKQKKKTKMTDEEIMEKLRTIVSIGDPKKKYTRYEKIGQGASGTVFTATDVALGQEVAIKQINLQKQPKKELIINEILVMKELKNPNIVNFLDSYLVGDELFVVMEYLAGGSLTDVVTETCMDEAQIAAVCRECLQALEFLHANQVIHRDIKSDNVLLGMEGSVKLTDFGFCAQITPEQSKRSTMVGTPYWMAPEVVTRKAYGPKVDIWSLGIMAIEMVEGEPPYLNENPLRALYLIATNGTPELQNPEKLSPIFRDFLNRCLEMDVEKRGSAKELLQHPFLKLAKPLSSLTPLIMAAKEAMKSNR
Aurora-A(h), sequence (O14965 whole entry): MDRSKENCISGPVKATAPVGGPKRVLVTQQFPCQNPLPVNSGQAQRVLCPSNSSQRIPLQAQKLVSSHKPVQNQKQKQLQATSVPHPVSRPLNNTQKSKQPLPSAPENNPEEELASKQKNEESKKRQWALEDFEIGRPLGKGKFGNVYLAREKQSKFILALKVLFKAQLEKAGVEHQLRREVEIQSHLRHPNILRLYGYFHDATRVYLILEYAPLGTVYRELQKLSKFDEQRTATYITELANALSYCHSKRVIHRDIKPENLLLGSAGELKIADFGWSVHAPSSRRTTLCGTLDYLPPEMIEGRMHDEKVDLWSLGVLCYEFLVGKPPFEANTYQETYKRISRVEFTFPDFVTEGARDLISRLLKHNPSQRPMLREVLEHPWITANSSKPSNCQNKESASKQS
Hck(h) activated, sequence (P08631 whole entry): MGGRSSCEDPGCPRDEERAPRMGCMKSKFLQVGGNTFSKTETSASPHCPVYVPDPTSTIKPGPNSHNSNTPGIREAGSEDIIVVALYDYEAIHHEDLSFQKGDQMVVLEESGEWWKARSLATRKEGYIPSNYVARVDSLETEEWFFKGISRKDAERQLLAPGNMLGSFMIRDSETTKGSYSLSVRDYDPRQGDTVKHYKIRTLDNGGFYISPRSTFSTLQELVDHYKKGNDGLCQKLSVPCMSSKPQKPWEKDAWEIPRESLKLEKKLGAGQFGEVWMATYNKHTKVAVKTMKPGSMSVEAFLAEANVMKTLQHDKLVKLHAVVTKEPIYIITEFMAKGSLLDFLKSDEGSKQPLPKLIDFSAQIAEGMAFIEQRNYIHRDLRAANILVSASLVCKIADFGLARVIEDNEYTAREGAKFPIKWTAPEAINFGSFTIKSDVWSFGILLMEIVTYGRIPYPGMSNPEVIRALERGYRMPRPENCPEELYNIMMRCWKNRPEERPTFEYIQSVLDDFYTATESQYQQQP
Plk1(h), sequence (P53350 whole entry): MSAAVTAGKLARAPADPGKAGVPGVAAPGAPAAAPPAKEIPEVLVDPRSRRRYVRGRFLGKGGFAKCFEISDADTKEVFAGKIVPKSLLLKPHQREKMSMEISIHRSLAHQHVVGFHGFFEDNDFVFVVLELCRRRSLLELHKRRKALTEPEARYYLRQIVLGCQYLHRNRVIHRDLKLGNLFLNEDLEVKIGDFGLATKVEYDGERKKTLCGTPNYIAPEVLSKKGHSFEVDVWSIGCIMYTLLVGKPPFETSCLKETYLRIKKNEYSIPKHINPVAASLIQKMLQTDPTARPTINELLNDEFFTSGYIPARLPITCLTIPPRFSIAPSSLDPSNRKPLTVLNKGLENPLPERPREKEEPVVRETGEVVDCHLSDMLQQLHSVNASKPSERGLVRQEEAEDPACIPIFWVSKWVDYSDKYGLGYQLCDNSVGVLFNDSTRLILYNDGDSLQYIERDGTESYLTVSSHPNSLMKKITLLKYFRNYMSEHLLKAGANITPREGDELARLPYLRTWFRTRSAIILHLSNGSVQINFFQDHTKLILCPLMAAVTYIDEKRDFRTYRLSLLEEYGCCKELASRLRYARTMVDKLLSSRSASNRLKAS
MKK6(h), sequence (P52564 whole entry): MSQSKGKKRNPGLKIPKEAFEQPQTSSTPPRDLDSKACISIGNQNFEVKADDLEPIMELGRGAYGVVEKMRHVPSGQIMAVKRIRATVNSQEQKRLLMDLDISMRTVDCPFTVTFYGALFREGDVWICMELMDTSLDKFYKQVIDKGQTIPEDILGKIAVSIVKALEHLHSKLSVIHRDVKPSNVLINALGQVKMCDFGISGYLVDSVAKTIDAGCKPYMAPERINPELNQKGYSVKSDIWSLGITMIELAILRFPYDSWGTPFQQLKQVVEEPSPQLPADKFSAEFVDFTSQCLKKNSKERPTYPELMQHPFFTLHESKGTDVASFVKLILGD
IKKα(h), sequence (O15111 whole entry): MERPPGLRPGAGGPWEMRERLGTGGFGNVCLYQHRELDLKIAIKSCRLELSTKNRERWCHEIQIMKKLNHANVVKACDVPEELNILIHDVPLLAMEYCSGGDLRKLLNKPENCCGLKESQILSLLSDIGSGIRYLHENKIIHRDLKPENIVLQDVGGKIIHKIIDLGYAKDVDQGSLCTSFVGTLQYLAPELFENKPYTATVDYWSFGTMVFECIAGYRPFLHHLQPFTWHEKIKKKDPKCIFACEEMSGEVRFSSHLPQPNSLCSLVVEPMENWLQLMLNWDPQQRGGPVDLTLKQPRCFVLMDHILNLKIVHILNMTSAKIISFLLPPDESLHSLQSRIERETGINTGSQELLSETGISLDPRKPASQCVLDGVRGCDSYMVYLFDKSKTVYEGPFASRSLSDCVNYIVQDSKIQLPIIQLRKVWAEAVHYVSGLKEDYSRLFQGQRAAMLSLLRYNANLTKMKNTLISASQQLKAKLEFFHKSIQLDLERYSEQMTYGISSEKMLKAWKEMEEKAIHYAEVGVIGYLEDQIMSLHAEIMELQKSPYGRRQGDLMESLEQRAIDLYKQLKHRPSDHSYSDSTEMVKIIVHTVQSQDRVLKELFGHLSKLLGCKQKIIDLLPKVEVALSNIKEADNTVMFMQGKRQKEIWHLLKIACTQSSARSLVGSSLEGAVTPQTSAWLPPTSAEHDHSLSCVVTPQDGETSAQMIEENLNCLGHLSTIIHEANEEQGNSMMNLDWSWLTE
Lck(h), sequence (P06239 whole entry): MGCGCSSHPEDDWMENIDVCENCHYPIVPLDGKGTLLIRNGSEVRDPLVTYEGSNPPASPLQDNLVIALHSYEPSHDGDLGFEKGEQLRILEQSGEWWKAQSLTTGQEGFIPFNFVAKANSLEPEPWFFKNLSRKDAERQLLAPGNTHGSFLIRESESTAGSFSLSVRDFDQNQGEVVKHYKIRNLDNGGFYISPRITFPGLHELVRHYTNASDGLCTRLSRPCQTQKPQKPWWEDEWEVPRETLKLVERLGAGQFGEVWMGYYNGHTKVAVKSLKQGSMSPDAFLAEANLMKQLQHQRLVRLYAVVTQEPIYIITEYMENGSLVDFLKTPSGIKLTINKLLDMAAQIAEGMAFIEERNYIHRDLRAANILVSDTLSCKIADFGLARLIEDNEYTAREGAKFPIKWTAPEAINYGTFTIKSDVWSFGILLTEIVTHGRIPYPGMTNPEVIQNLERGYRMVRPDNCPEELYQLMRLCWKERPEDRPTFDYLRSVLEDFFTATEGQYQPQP

CCn1c(=O)c(-c2ccccc2)cc2cnc(Nc3ncc(CCN(C)C)s3)cc21 [Compound 2, 7-[5-(2-Dimethylamino-ethyl)-thiazol-2-ylamino]-1-ethyl-3-phenyl-1H-[1,6]naphthyridin-2-one]
< 6.00: pIC50 (JNK2α2(h)) | pIC50 (Syk(h)) | pIC50 (PAK2(h)) | pIC50 (PKCα(h)) | pIC50 (SAPK2b(h)) | pIC50 (CSK(h)) | pIC50 (Flt3(h)) | pIC50 (IKKα(h)) | pIC50 (IGF-1R(h)) | pIC50 (Aurora-A(h)) | pIC50 (BTK(R28H)(h)) | pIC50 (CK1δ(h)) | pIC50 (MKK6(h)) | pIC50 (Plk1(h)) | pIC50 (Pim-1(h)) | pIC50 (JNK1α1(h)) | pIC50 (MAPK1(h)) | pIC50 (EGFR(h)) | pIC50 (CHK1(h)) | pIC50 [1] | pIC50 (CDK2/cyclinA(h)) | pIC50 (CaMKI(h)) | pIC50 (p70S6K(h))
5.00 to 6.00: pEC50 (DoHH2; [2])
6.00 to 6.30: pIC50 (Abl(T315I)(h)) | pIC50 (KDR(h)) | pIC50 (PDGFRβ(h))
> 8.00: pIC50 (Lck(h))
5.30 to 6.00: pIC50 (Lyn; Lyn IC50)
7.00 to 8.00: pIC50 (Bmx(h)) | pIC50 (Abl(h)) | pIC50 (FGFR1(h))
6.30 to 7.00: pIC50 (c-Kit(h)) | pIC50 (Hck(h) activated)

CCN(CC)CCOc1ccc(Nc2cc3c(cn2)cc(-c2ccccc2)c(=O)n3CC)nc1 [Compound 1, 7-[5-(2-Diethylamino-ethoxy)-pyridin-2-ylamino]-1-ethyl-3-phenyl-1H-[1, 6]naphthyridin-2-one]
> 8.00: pIC50 (Bmx(h)) | pIC50 (Abl(h)) | pIC50 (FGFR1(h)) | pIC50 (Lck(h)) | pIC50 (Hck(h) activated)
> 6.00: pEC50 (DoHH2; DOHH-2, read-out: EC50 (Proliferation)) | pEC50 (DoHH2; [2])
< 6.00: pIC50 (JNK2α2(h)) | pIC50 (Syk(h)) | pIC50 (PAK2(h)) | pIC50 (PKCα(h)) | pIC50 (SAPK2b(h)) | pIC50 (Flt3(h)) | pIC50 (IKKα(h)) | pIC50 (IGF-1R(h)) | pIC50 (Aurora-A(h)) | pIC50 (CK1δ(h)) | pIC50 (MKK6(h)) | pIC50 (Plk1(h)) | pIC50 (Pim-1(h)) | pIC50 (JNK1α1(h)) | pIC50 (MAPK1(h)) | pIC50 (CHK1(h)) | pIC50 [1] | pIC50 (CDK2/cyclinA(h)) | pIC50 (CaMKI(h)) | pIC50 (p70S6K(h))
6.00 to 6.30: pIC50 (CSK(h)) | pIC50 (BTK(R28H)(h)) | pIC50 (EGFR(h))
6.30 to 7.00: pIC50 (c-Kit(h)) | pIC50 (Abl(T315I)(h)) | pIC50 (KDR(h)) | pIC50 (PDGFRβ(h))
6.00 to 7.00: pIC50 (Lyn)
